The record followed here is BindingDB's records for doi:10.7270/Q25719N6 (The Scripps Research Institute Molecular Screening Center, 2013).

A value given as a limit tells only on which side of the number the result lay.

This experiment addresses T1, Fructose-bisphosphate aldolase (Mycobacterium tuberculosis (strain ATCC 25618 / H37Rv), UniProt P9WQA3).
T1 sequence (P9WQA3 whole entry): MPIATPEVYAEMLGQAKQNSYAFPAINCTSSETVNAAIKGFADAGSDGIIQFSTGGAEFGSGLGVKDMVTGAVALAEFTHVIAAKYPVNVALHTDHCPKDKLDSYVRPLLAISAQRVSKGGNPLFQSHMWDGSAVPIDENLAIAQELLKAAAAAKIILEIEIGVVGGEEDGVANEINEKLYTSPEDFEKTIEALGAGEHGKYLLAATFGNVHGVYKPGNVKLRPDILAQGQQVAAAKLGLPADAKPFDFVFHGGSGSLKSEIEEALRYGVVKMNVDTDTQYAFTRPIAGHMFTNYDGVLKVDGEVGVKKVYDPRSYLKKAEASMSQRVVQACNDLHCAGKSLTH

Turning to `O=C(NCc1cccc(Cl)c1)C1=C2NS(=O)(=O)C=CN2C=CC1` [MLS002162417], the IC50 – broadly, the midpoint of a concentration-inhibition curve – stood at 2.61 µM.

`N#CC1=C(C2CC2)CC(c2ccccc2)C(C#N)C1=N` (configuration not stated) [SMR000039375]: the IC50 was greater than 10 µM.
